Measured values reported in ChEMBL document CHEMBL1255213, “Bottromycin derivatives: efficient chemical modifications of the ester moiety and evaluation of anti-MRSA and anti-VRE activities” (2010).
In brackets after ≈: the same amount, converted by molar mass.

Assays:
Format in all cases: functional
Staphylococcus aureus [1] = assay: Antimicrobial activity against methicillin-resistant Staphylococcus aureus HH1 by standard serial-dilution technique
Enterococcus faecium [2] = assay: Antimicrobial activity against Enterococcus faecium NCTC 12203 by standard serial-dilution technique
Staphylococcus aureus [3] = assay: Antimicrobial activity against methicillin-resistant Staphylococcus aureus assessed as rate of residual activity; set-up: concentration or dose not given beside the values
Enterococcus faecium [4] = assay: Antimicrobial activity against Enterococcus faecium NCTC 12201 by standard serial-dilution technique
Staphylococcus aureus [5] = assay: Antimicrobial activity against Staphylococcus aureus FDA209P by standard serial-dilution technique
Staphylococcus aureus [6] = assay: Antimicrobial activity against Staphylococcus aureus Smith by standard serial-dilution technique
Staphylococcus aureus [7] = assay: Antimicrobial activity against methicillin-resistant Staphylococcus aureus 92-1191 by standard serial-dilution technique

SMILES | MIC (Staphylococcus aureus [1]) [µg/mL] | MIC (Enterococcus faecium [2]) [µg/mL] | Activity (Staphylococcus aureus [3]) [%] | MIC (Enterococcus faecium [4]) [µg/mL] | MIC (Staphylococcus aureus [5]) [µg/mL] | MIC (Staphylococcus aureus [6]) [µg/mL] | MIC (Staphylococcus aureus [7]) [µg/mL]
CC(C)[C@@H]1NC(=O)[C@@H]2[C@H](C)CCN2C(=O)CN/C(=N\[C@H](C(=O)N[C@H](C(=O)N[C@H](CC(=O)N2CCOCC2)c2nccs2)[C@@H](C)c2ccccc2)C(C)(C)C)[C@H](C(C)(C)C)NC1=O | 16 (≈ 18.2 µM) | 4 (≈ 4.56 µM) | 100 | 16 (≈ 18.2 µM) | 16 (≈ 18.2 µM) | 8 (≈ 9.11 µM) | 32 (≈ 36.4 µM)
COC(=O)C[C@@H](NC(=O)[C@@H](NC(=O)[C@@H](/N=C1\NCC(=O)N2CC[C@@H](C)[C@H]2C(=O)N[C@@H](C(C)C)C(=O)N[C@H]1C(C)(C)C)C(C)(C)C)[C@@H](C)c1ccccc1)c1nccs1 | 1 (≈ 1.21 µM) | 0.5 (≈ 0.607 µM) | 0 | 1 (≈ 1.21 µM) | 1 (≈ 1.21 µM) | 1 (≈ 1.21 µM) | 2 (≈ 2.43 µM)
CC(C)[C@@H]1NC(=O)[C@@H]2[C@H](C)CCN2C(=O)CN/C(=N\[C@H](C(=O)N[C@H](C(=O)N[C@H](CC(=O)O)c2nccs2)[C@@H](C)c2ccccc2)C(C)(C)C)[C@H](C(C)(C)C)NC1=O | 64 (≈ 79.1 µM) | 32 (≈ 39.6 µM) |  | 128 (≈ 158 µM) | 64 (≈ 79.1 µM) | 64 (≈ 79.1 µM) | 128 (≈ 158 µM)
CC(C)[C@@H]1NC(=O)[C@@H]2[C@H](C)CCN2C(=O)CN/C(=N\[C@H](C(=O)N[C@H](C(=O)N[C@H](CC(=O)NN)c2nccs2)[C@@H](C)c2ccccc2)C(C)(C)C)[C@H](C(C)(C)C)NC1=O | 16 (≈ 19.4 µM) | 4 (≈ 4.86 µM) | 86 | 8 (≈ 9.72 µM) | 16 (≈ 19.4 µM) | 16 (≈ 19.4 µM) | 32 (≈ 38.9 µM)
CC(C)[C@@H]1NC(=O)[C@@H]2[C@H](C)CCN2C(=O)CN/C(=N\[C@H](C(=O)N[C@H](C(=O)N[C@H](CC(=O)NCc2ccccc2)c2nccs2)[C@@H](C)c2ccccc2)C(C)(C)C)[C@H](C(C)(C)C)NC1=O | 8 (≈ 8.91 µM) | 2 (≈ 2.23 µM) | 71 | 8 (≈ 8.91 µM) | 8 (≈ 8.91 µM) | 8 (≈ 8.91 µM) | 8 (≈ 8.91 µM)
C#CCNC(=O)C[C@@H](NC(=O)[C@@H](NC(=O)[C@@H](/N=C1\NCC(=O)N2CC[C@@H](C)[C@H]2C(=O)N[C@@H](C(C)C)C(=O)N[C@H]1C(C)(C)C)C(C)(C)C)[C@@H](C)c1ccccc1)c1nccs1 | 8 (≈ 9.46 µM) | 2 (≈ 2.36 µM) | 100 | 4 (≈ 4.73 µM) | 8 (≈ 9.46 µM) | 8 (≈ 9.46 µM) | 16 (≈ 18.9 µM)
CC(C)[C@@H]1NC(=O)[C@@H]2[C@H](C)CCN2C(=O)CN/C(=N\[C@H](C(=O)N[C@H](C(=O)N[C@H](CC(=O)N2CCSC2)c2nccs2)[C@@H](C)c2ccccc2)C(C)(C)C)[C@H](C(C)(C)C)NC1=O | 8 (≈ 9.09 µM) | 2 (≈ 2.27 µM) | 100 | 8 (≈ 9.09 µM) | 4 (≈ 4.54 µM) | 4 (≈ 4.54 µM) | 8 (≈ 9.09 µM)
CC(C)[C@@H]1NC(=O)[C@@H]2[C@H](C)CCN2C(=O)CN/C(=N\[C@H](C(=O)N[C@H](C(=O)N[C@H](CC(=O)N2CCSCC2)c2nccs2)[C@@H](C)c2ccccc2)C(C)(C)C)[C@H](C(C)(C)C)NC1=O | 8 (≈ 8.95 µM) | 4 (≈ 4.47 µM) | 100 | 4 (≈ 4.47 µM) | 8 (≈ 8.95 µM) | 4 (≈ 4.47 µM) | 8 (≈ 8.95 µM)
CC(C)[C@@H]1NC(=O)[C@@H]2[C@H](C)CCN2C(=O)CN/C(=N\[C@H](C(=O)N[C@H](C(=O)N[C@H](CC(=O)N2CCN(C(=O)OC(C)(C)C)CC2)c2nccs2)[C@@H](C)c2ccccc2)C(C)(C)C)[C@H](C(C)(C)C)NC1=O | 8 (≈ 8.19 µM) | 4 (≈ 4.09 µM) | 42 | 8 (≈ 8.19 µM) | 8 (≈ 8.19 µM) | 4 (≈ 4.09 µM) | 8 (≈ 8.19 µM)
CC(C)[C@@H]1NC(=O)[C@@H]2[C@H](C)CCN2C(=O)CN/C(=N\[C@H](C(=O)N[C@H](C(=O)N[C@H](CC(=O)N2CCNCC2)c2nccs2)[C@@H](C)c2ccccc2)C(C)(C)C)[C@H](C(C)(C)C)NC1=O | 64 (≈ 73 µM) | 32 (≈ 36.5 µM) |  | 32 (≈ 36.5 µM) | 64 (≈ 73 µM) | 32 (≈ 36.5 µM) | 128 (≈ 146 µM)
C#CCN1CCN(C(=O)C[C@@H](NC(=O)[C@@H](NC(=O)[C@@H](/N=C2\NCC(=O)N3CC[C@@H](C)[C@H]3C(=O)N[C@@H](C(C)C)C(=O)N[C@H]2C(C)(C)C)C(C)(C)C)[C@@H](C)c2ccccc2)c2nccs2)CC1 | 16 (≈ 17.5 µM) | 16 (≈ 17.5 µM) | 67 | 16 (≈ 17.5 µM) | 16 (≈ 17.5 µM) | 16 (≈ 17.5 µM) | 32 (≈ 35 µM)
CC(C)[C@@H]1NC(=O)[C@@H]2[C@H](C)CCN2C(=O)CN/C(=N\[C@H](C(=O)N[C@H](C(=O)N[C@H](CC(=O)N2CCN(Cc3ccccc3)CC2)c2nccs2)[C@@H](C)c2ccccc2)C(C)(C)C)[C@H](C(C)(C)C)NC1=O | 4 (≈ 4.14 µM) | 4 (≈ 4.14 µM) | 84 | 4 (≈ 4.14 µM) | 4 (≈ 4.14 µM) | 4 (≈ 4.14 µM) | 4 (≈ 4.14 µM)
CC(C)[C@@H]1NC(=O)[C@@H]2[C@H](C)CCN2C(=O)CN/C(=N\[C@H](C(=O)N[C@H](C(=O)N[C@H](CNC(=O)N2CCSC2)c2nccs2)[C@@H](C)c2ccccc2)C(C)(C)C)[C@H](C(C)(C)C)NC1=O | 4 (≈ 4.47 µM) | 2 (≈ 2.23 µM) | 100 | 4 (≈ 4.47 µM) | 4 (≈ 4.47 µM) | 4 (≈ 4.47 µM) | 4 (≈ 4.47 µM)
CC(C)[C@@H]1NC(=O)[C@@H]2[C@H](C)CCN2C(=O)CN/C(=N\[C@H](C(=O)N[C@H](C(=O)N[C@H](CNC(=O)NCc2ccccc2)c2nccs2)[C@@H](C)c2ccccc2)C(C)(C)C)[C@H](C(C)(C)C)NC1=O | 16 (≈ 17.5 µM) | 4 (≈ 4.38 µM) | 100 | 8 (≈ 8.76 µM) | 8 (≈ 8.76 µM) | 16 (≈ 17.5 µM) | 16 (≈ 17.5 µM)
CCSC(=O)C[C@@H](NC(=O)[C@@H](NC(=O)[C@@H](/N=C1\NCC(=O)N2CC[C@@H](C)[C@H]2C(=O)N[C@@H](C(C)C)C(=O)N[C@H]1C(C)(C)C)C(C)(C)C)[C@@H](C)c1ccccc1)c1nccs1 | ≤ 0.25 | ≤ 0.25 | 0 | ≤ 0.25 | ≤ 0.25 | 0.5 (≈ 0.586 µM) | 0.5 (≈ 0.586 µM)
CCCSC(=O)C[C@@H](NC(=O)[C@@H](NC(=O)[C@@H](/N=C1\NCC(=O)N2CC[C@@H](C)[C@H]2C(=O)N[C@@H](C(C)C)C(=O)N[C@H]1C(C)(C)C)C(C)(C)C)[C@@H](C)c1ccccc1)c1nccs1 | ≤ 0.25 | ≤ 0.25 | 0 | 1 (≈ 1.15 µM) | 0.5 (≈ 0.577 µM) | 0.5 (≈ 0.577 µM) | 1 (≈ 1.15 µM)
CC(C)SC(=O)C[C@@H](NC(=O)[C@@H](NC(=O)[C@@H](/N=C1\NCC(=O)N2CC[C@@H](C)[C@H]2C(=O)N[C@@H](C(C)C)C(=O)N[C@H]1C(C)(C)C)C(C)(C)C)[C@@H](C)c1ccccc1)c1nccs1 | 0.5 (≈ 0.577 µM) | ≤ 0.25 | 0 | 1 (≈ 1.15 µM) | 0.5 (≈ 0.577 µM) | 0.5 (≈ 0.577 µM) | 1 (≈ 1.15 µM)
CCCC(=O)C[C@@H](NC(=O)[C@@H](NC(=O)[C@@H](/N=C1\NCC(=O)N2CC[C@@H](C)[C@H]2C(=O)N[C@@H](C(C)C)C(=O)N[C@H]1C(C)(C)C)C(C)(C)C)[C@@H](C)c1ccccc1)c1nccs1 | 1 (≈ 1.2 µM) | 0.5 (≈ 0.599 µM) | 100 | 2 (≈ 2.39 µM) | 1 (≈ 1.2 µM) | 1 (≈ 1.2 µM) | 2 (≈ 2.39 µM)
CCC(=O)C[C@@H](NC(=O)[C@@H](NC(=O)[C@@H](/N=C1\NCC(=O)N2CC[C@@H](C)[C@H]2C(=O)N[C@@H](C(C)C)C(=O)N[C@H]1C(C)(C)C)C(C)(C)C)[C@@H](C)c1ccccc1)c1nccs1 | 2 (≈ 2.44 µM) | 1 (≈ 1.22 µM) | 100 | 2 (≈ 2.44 µM) | 1 (≈ 1.22 µM) | 1 (≈ 1.22 µM) | 2 (≈ 2.44 µM)
CC(=O)NC[C@H]1CN(c2ccc(N3CCOCC3)c(F)c2)C(=O)O1 [LINEZOLID] |  | 2 (≈ 5.93 µM) |  | 2 (≈ 5.93 µM) |  |  | 
CN[C@H](CC(C)C)C(=O)N[C@H]1C(=O)N[C@@H](CC(N)=O)C(=O)N[C@H]2C(=O)N[C@H]3C(=O)N[C@H](C(=O)N[C@H](C(=O)O)c4cc(O)cc(O)c4-c4cc3ccc4O)[C@H](O)c3ccc(c(Cl)c3)Oc3cc2cc(c3O[C@@H]2O[C@H](CO)[C@@H](O)[C@H](O)[C@H]2O[C@H]2C[C@](C)(N)[C@H](O)[C@H](C)O2)Oc2ccc(cc2Cl)[C@H]1O [VANCOMYCIN] |  | > 128 |  | > 128 |  |  | 
